Reference: publication PMC9297976 (Journal of Applied Toxicology, 2021)

Experiments:
[1] = molecular target: T1, medaka ARβ (mArβ) (Oryzias latipes, UniProt D1MV73); assay: Medaka ARβ reporter gene assay, agonist assay; type: cell-based, Japanese medaka (Oryzias latipes); details: MAC = 1.0 × 10^−5 M
T1 sequence (D1MV73 1-744): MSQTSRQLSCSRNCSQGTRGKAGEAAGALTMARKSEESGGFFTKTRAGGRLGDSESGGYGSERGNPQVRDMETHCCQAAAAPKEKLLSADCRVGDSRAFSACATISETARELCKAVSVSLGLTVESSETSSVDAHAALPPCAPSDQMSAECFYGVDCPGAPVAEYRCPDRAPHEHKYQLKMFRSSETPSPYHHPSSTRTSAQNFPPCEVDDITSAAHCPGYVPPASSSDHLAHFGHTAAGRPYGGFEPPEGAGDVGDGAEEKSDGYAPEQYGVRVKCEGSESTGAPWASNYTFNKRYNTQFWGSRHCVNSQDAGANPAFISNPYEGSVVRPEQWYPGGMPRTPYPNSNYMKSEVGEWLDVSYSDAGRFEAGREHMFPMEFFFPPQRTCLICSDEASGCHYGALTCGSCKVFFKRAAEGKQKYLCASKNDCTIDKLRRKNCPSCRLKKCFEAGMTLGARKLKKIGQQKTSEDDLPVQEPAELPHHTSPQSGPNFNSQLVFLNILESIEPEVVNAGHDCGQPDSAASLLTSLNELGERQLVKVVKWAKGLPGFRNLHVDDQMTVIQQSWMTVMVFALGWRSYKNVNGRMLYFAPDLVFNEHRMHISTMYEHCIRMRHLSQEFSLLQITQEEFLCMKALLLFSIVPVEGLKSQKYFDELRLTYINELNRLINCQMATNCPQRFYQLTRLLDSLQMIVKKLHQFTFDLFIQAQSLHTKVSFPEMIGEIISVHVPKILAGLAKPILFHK

[2] = molecular target: T1, medaka ARβ (mArβ); assay: Medaka ARβ reporter gene assay, antagonist assay; type: cell-based, Japanese medaka (Oryzias latipes); details: 11‐KT spiked at 50 nM (D); MAC = 1.0 × 10^−5 M
[3] = molecular target: T2, medaka Esr1 (mEsr1) (Oryzias latipes, UniProt P50241); assay: Medaka Esr1 reporter gene assay, antagonist assay; type: cell-based, Japanese medaka (Oryzias latipes); details: E2 spiked at 1.0 nM (B); MAC = 1.0 × 10^−5 M
T2 sequence (P50241 1-620): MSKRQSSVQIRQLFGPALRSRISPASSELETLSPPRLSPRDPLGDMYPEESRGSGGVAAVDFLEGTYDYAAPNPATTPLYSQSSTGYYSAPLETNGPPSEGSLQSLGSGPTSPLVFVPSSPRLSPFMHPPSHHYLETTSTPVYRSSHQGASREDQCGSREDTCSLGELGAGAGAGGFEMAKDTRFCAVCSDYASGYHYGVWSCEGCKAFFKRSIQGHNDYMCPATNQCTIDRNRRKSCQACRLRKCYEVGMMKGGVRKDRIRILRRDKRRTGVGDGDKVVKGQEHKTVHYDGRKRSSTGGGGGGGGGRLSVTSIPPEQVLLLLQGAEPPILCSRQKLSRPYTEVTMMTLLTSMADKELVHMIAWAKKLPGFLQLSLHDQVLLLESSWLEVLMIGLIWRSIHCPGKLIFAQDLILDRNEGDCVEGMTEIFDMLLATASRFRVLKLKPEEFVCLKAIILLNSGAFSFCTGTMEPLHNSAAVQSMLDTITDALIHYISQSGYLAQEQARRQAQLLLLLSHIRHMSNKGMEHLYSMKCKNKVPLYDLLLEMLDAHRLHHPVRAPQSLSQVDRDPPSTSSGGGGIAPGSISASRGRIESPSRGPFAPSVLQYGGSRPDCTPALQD

[4] = test system: Japanese medaka (Oryzias latipes); assay: Fish Short‐Term Reproduction Assay; type: in vivo; details: for GSI Female / GSI Male / HSI Female / HSI Male / Length Female / Length Male / Weight Female / Weight Male: completion of exposure
[5] = molecular target: T2, medaka Esr1 (mEsr1); assay: cell-based; design: species or system Japanese medaka (Oryzias latipes)
[6] = 18.8 μg/L measured, 21 d, sig. ↑ vs control
[7] = 51.8 μg/L measured, 21 d, sig. ↑ vs control
[8] = 51.8 μg/L measured, 21 d, sig. ↓ vs control
[9] = 170 μg/L measured, 21 d, sig. ↑ vs control
[10] = measured concentration 5.63 μg/L
[11] = measured concentration 18.8 μg/L
[12] = measured concentration 51.8 μg/L
[13] = measured concentration 170 μg/L

## 4‐Nonylphenol (branched) [Chemical 4NP]
[1]
  Agonistic activity: NE (MAC = 1.0 × 10^−5 M)
[2]
  Antagonistic activity: NE (MAC = 1.0 × 10^−5 M)^(D)
[3]
  Antagonistic activity: NE (MAC = 1.0 × 10^−5 M)^(B)
[4]; 5.63 μg/L measured, 21 d
  Fertility rate: 97 ± 2.2%
  Hepatic VTG, female: 866 ± 277 ng/mg‐liver
  Mortality: 0.0%
  Mortality, number of dead fish: 0
  Number of fertilized eggs (per female per day): 20 ± 1.2
  Number of total eggs (per female per day): 21 ± 0.9
  SSC female (joint plates with papillary processes): 0 ± 0
  SSC male (joint plates with papillary processes): 92 ± 15
[4]; 5.63 μg/L measured, 21 d, sig. ↑ vs control
  Hepatic VTG, male: 32 ± 31 ng/mg‐liver
[4]; 18.8 μg/L measured, 21 d
  Fertility rate: 94 ± 7.7%
  Mortality: 0.0%
  Mortality, number of dead fish: 0
  Number of fertilized eggs (per female per day): 17 ± 5.4
  Number of total eggs (per female per day): 18 ± 4.9
  SSC female (joint plates with papillary processes): 0 ± 0
  SSC male (joint plates with papillary processes): 79 ± 21
[4]; [6]
  Hepatic VTG, female: 1,153 ± 300 ng/mg‐liver
  Hepatic VTG, male: 375 ± 320 ng/mg‐liver
[4]; 51.8 μg/L measured, 21 d
  Mortality: 0.0%
  Mortality, number of dead fish: 0
  SSC female (joint plates with papillary processes): 0 ± 0
  SSC male (joint plates with papillary processes): 97 ± 13
[4]; [7]
  Hepatic VTG, female: 1,348 ± 258 ng/mg‐liver
  Hepatic VTG, male: 2,431 ± 1,455 ng/mg‐liver
[4]; [8]
  Fertility rate: 61 ± 10%
  Number of total eggs (per female per day): 13 ± 3.0
[4]; 170 μg/L measured, 21 d
  Mortality: 4.2%
  Mortality, number of dead fish: 1
  SSC female (joint plates with papillary processes): 0 ± 0
  SSC male (joint plates with papillary processes): 87 ± 12
[4]; [9]
  Hepatic VTG, female: 1,212 ± 506 ng/mg‐liver
  Hepatic VTG, male: 5,009 ± 1830 ng/mg‐liver
[4]; 170 μg/L measured, 21 d, sig. ↓ vs control
  Fertility rate: 33 ± 9.7%
[4]; 21 d
  Change of hepatic VTG levels in females (in words): significant increase
  Fecundity, number of total eggs (in words): statistically significant decrease
  LOEC, elevated hepatic VTG in males: 5.63 µg/L
[4]; LOEC on VTG induction in males
  LOECmVTG: 5.63 µg/L
[4]; LOEC on reproduction (fecundity and/or fertility)
  LOECREPRO: 51.8 µg/L
[4]; lowest observed effect concentration on mortality
  LOECTOX: ND (>170) μg/L
[4]; [10]
  GSI Female: 7.8 ± 1.6%
  GSI Male: 1.02 ± 0.07%
  HSI Female: 3.4 ± 0.55%
  HSI Male: 1.7 ± 0.10%
  Length Female: 36.7 ± 1.3 mm
  Length Male: 36.8 ± 1.3 mm
  Weight Female: 535 ± 82 mg
  Weight Male: 515 ± 45 mg
[4]; [11]
  GSI Female: 8.9 ± 0.6%
  GSI Male: 1.08 ± 0.06%
  HSI Female: 4.1 ± 0.59%
  HSI Male: 1.7 ± 0.28%
  Length Female: 35.5 ± 1.2 mm
  Length Male: 37.5 ± 0.6 mm
  Weight Female: 500 ± 46 mg
  Weight Male: 552 ± 34 mg
[4]; [12]
  GSI Female: 7.7 ± 0.6%
  GSI Male: 1.15 ± 0.20%
  HSI Female: 4.2 ± 0.66%
  HSI Male: 2.0 ± 0.22%
  Length Female: 36.4 ± 0.8 mm
  Length Male: 37.6 ± 1.2 mm
  Weight Female: 537 ± 45 mg
  Weight Male: 552 ± 69 mg
[4]; [13]
  GSI Female: 7.9 ± 1.5%
  GSI Male: 1.05 ± 0.15%
  HSI Female: 3.9 ± 0.58%
  HSI Male: 2.4 ± 0.10%
  Length Female: 36.0 ± 1.6 mm
  Length Male: 38.6 ± 1.5 mm
  Weight Female: 540 ± 64 mg
  Weight Male: 602 ± 64 mg
[5]; mode of action in which EC50 or PC10 was obtained in RGA
  In vitro positive: Esr: Esr
[5]; read-out: Agonistic activity EC50, HEK293 cells
  EC50: 0.022 µM
